Measured values from patent publication US6057153A, “Stabilized external guide sequences” (Yale University, priority 1997, dated 2000).

Columns and labels:
[1] = system: APL RNA (PML-RARα fusion junction); assay: Test tube cleavage assay; format: biochemical; settings: 0.25 μM EGS, RNase P from HeLa cells
Protocol: Test tube cleavage assay: Three nanograms of linearized pAPL-3Z3 plasmid with HindIII restriction enzyme was transcribed as described in Example 1 in presence of ^32 P-ATP for 30 minutes 0.25 μM (final concentration) of EGS and 2 μl of a purified preparation of RNase P from HeLa cells (Bartkiewicz et al., Genes and Development, 3:488-499 (1989)) was added to the transcription reaction during the transcription. The reaction products were separated on a denaturing polyacrylamide gel and visualized using a Molecular Dynamics PHOSPHORIMAGER™.

NB4/D5 cells = assay: MTT proliferation assay; format: cell-based, human; settings: for effect on cell growth as measured by MTT assay: NB4/D5 cells, 1 to 10 μM EGS, daily replacement; for concentration above which dose dependent inhibition of NB4 cell growth was observed: NB4 cells, MTT assay
Protocol: Cell culture testing: NB4 cells, a maturation inducible cell line with t(15;17) translocation marker isolated from an acute promyelocytic leukemia patient (Lanotte et al. (1991)) was used to test the antiproliferative activity of EGSs targeted to PML-RARα. These cells respond to maturation-inducing effects of all-trans retinoic acid. One subclone of NB4 cells, NB4/D5, which uniformly responds to retinoic acid (Ahn et al. (1995)), was used for cell culture testing. The NB4 cells were grown in RPMI media containing 10% fetal bovine serum (Intergen, Purchase, N.Y.), 100 U/ml penicillin, 200 μg/ml streptomycin, and 20 mM glutamine with pCO2 of 5% at 37° C.
All treatments were done in triplicate and experiments were repeated more than once. NB4/D5 cells which were maintained in logarithmic growth phase were seeded at a density of 1×10^5 cells in 1 ml of RPMI medium in a 24 well tissue culture plate. Increasing concentrations of EGS were added to the cells. More than 90% of the media was removed every 24 hours and replaced with fresh media containing the same concentration of EGS. An aliquot of the cells was removed every 24 hours and an MTT proliferation assay (as described by Mosmann et al., Journal of Immunological Methods, 65:55 (1983)) was performed on these cells.

HBV RNA = assay: RNase protection assay after transfection of pol III EGS expression vectors; format: cell-based; settings: HepG2.2.15 cells transfected with EGS plasmids
Text: Cloning of EGS 2 and EGS 62: pREP9 (Invitrogen, San Diego, Calif.), an Epstein-Barr virus-based vector (Yates et al., Nature, 313:812-815 (1985)), was cut with XbaI and KpnI to remove the RSV LTR promoter sequence in the vector and a 244 nucleotide human U6 promoter (hU6; from nucleotide +1 to -244) was cloned into this region. cDNAs corresponding to EGS 2 and EGS 62 (see FIGS. 19 and 20, respectively) were synthesized on an Applied Biosystems DNA synthesizer, purified and cloned downstream of the hU6 promoter between KpnI and BamHI. The EGS sequence and the hU6 promoter sequence were excised using XbaI and BamHI and subcloned in pCEP4 (Invitrogen, San Diego, Calif.) that had been digested with BglII and NheI. […]
All plasmids were amplified in bacteria and the plasmid DNAs were purified using Qiagen (Qiagen Inc., Chatsworth, Calif.) columns. […] The protected fragments were separated on a 6% denaturing polyacrylamide gel, and the radioactivity associated with the protected bands were quantitated using a Molecular Dynamics PHOSPHORIMAGER™. The quantitation of the GAPDH RNA was used to normalize the samples.

[2] = APL patients, cited from earlier work
Substrate RNA (SUB-156) = assay: RNase P-mediated cleavage assay, single turnover conditions; format: biochemical, hepatitis B virus (HBV); settings: 200 nM EGS, 20 nM substrate, saturating RNase P, 60 min
Protocol: RNase P-mediated cleavage assay--Human RNase P was purified from HeLa cells according to the published procedures (14). Substrate RNA (SUB-156, FIG. 24) was 5'-end labeled using T4 polynucleotide kinase and [γ-^32P]ATP. The labeling mixture was then heated to 85° C. for 1 min, diluted with RNase-free water, and purified by a MICROSPIN™ G-25 column (Pharmacia) according to the manufacturer's instructions. Cleavage reactions were conducted in a reaction buffer containing 50 mM Tris-HCl (pH 7.4), 25 mM KCl, 10 mM MgCl2 and 0.1 mM EDTA. EGS oligomers and ^32 p-5'-end-labeled RNA substrate were heated in the reaction buffer without MgCl2 to 85° C. for 1 min and then slowly cooled to room temperature. The cleavage reaction was initiated by adding 2 μl of 100 mM MgCl2 and 3 μl of RNase P (enzyme activity for this preparation: cleavage of 0.035 pmol of tRNA^Tyr precursor min^-1 μl^-1). The final reaction volume was 20 μl and the reaction was incubated at 37° C. for 60 min. […] For each sample, cleavage reactions were performed in duplicates and the average values were used. To ensure reproducibility, cleavage assays for each EGS were also repeated in two separate experiments. The all-RNA EGS-159 was used as the reference sample and its cleavage values were counted as 100%. Cleavage percentages of all other EGSs were normalized against EGS-159 (Rel. Cleavage %) except in FIG. 30 and FIG. 31 where absolute cleavage percentages (Abs. Cleavage %) were plotted.
(§1) For EGS-single turnover conditions, the final concentrations were 200 nM for EGS and 20(nM for the RNA substrate. For EGS-multiple turnover conditions, the final concentrations were 200 nM for the RNA substrate and 40 nM for EGS. When determination of the time-course was required, the reaction volume was increased to 40 μl. Aliquots of 5-8 μl were removed from the reaction mixture at different time points (e.g. 1, 5, 15, 30 and 60 min), quenched in formamide loading buffer, and loaded onto 15% polyacrylamide/8 M urea gels. Quantitation of the cleavage product and the remaining RNA substrate was achieved using a Molecular Dynamics PHOSPHORIMAGER™.
General considerations--To select lead nuclease-resistant oligonucleotide prototypes as external guide sequences among many possible modifications, a reliable yet rapid in vitro cleavage assay for routine screening was used. Human RNase P, a ribonucleoprotein, is composed of a 340-nt H1 RNA component and one or more proteins (for recent review, see Ref. 16). A 3-step screening strategy was devised: 1) All analogues once synthesized were tested by a fast qualitative cleavage assay under single turnover conditions with 10-fold excess of EGS over target RNA substrate for 60 min. […] This was the best cleavage condition used in this study. Any analogue with a reasonable activity (e.g. more than 5% cleavage) would not be missed, under these circumstances, due to the high detection sensitivity provided by PHOSPHORIMAGER™. 2) Promising analogues were then assayed for stability in 50% human serum.

[3] = Nuclease resistance studies in 50% human serum; format: in vitro ADME; settings: 37° C., 24 h
Protocol: Nuclease resistance studies--100 μl of EGS oligonucleotides (5 μM), containing a trace of 5'-end-labeled oligomers, were incubated at 37° C. for different time periods (0-24 h) with 50% human serum (Sigma, S-7023). 20 μl aliquots were diluted to 100 μl with RNase-free water, phenol/chlorform extracted, and ethanol precipitated. The residue was resuspended in 10 μl of TE and 10 μl of 2× gel loading buffer containing 98% formamide, 10 mM1 EDTA and 0.1% bromophenol blue. The mixture was heated to 85° C. for 1 min, quickly cooled on ice and frozen at -20° C. prior to electrophoresis on 15% polyacrylamide/8 M urea gels. Gels were subsequently scanned on a Molecular Dynamics PHOSPHORIMAGER™, and the stability profile for each, oligomer was estimated from the ratio of the remaining intact materials versus all radio-labeled materials (intact oligomers plus degradation products). Stability studies of non radio-labeled EGS oligomers using capillary gel electrophoresis were also carried out according to the method of Leeds et al. (15).

[4] = system: EGS/target RNA complex (SUB-156) with human RNase P; assay: Measurements of kcat and A50; format: biochemical, hepatitis B virus (HBV)
Protocol: Measurements of kcat, Km and A50 --Measurements of these kinetic parameters were carried out using conditions similar to those described above (e.g. identical cleavage buffers). For kcat measurements, aliquots were taken every 30-60 s for the first 5 min. The logarithm of the percentage of cleavage (Abs. Cleavage %) was plotted against time, and the data points were fitted using a linear least-squaresanalysis. The slope represents kcat values. For Km measurements,a fixed amount of RNase P (0.6 μl) was used, while substrate concentrations (i.e. EGS/target RNA complex) varied from 25 to 500 nM. Several EGS/target RNA ratios were assayed including 1:1, 5:1 and 10:1. Attempts were made to obtain Km and Vmax values from linear Lineweaver-Burk or Eadie-Hofstee plots. The scattered values could not be fit as a hyperbolic function. For A50 measurements, the ratio between EGS and target RNA was kept as 10:1. Various amounts of RNase P (0.3 to 3 μl) were used to conduct a 60-min cleavage reaction. Percentage of cleavage was plotted against [RNase P] in μl, and 50% cleavage values (A50) were determined using a non-linear, least-squares routine (Kaleidagraph, Synergy Software). The amount of RNase P required to reach A50 was then converted to enzyme unit. 1 unit of RNase P represents the amount of RNase P that catalyzes the conversion of 1 pmol of tRNA^Tyr precursor to cleavage products per minute per μl of the enzyme preparation. 1 unit of RNase P preparation used for this study equals 28.57 μl.

target RNA SUB-156 = assay: RNase P-mediated cleavage, EGS-multiple turnover conditions; format: biochemical, hepatitis B virus (HBV); settings: 5-fold of RNA target over EGS
Protocol: FIG. 31 is a graph of a time-course of cleavage with selected EGSs under EGS-multiple turnover conditions. Experiments were conducted under similar conditions as that used in FIG. 30 with the exception that the molar ratio between ^32 P-5'-end-labeled target RNA SUB-156 and the respective EGSs was 5:1. Saturing amounts of RNase P were employed. Aliquots were withdrawn from the cleavage reaction at different time points, quenched in formamide loading buffer and loaded on 15% polyacryladmide/8 M urea gels. Absolute percentages of cleavage are expressed on the Y-axis. EGS-159 (.circle-solid.) is the all-RNA EGS control and EGS-407 (.smallcircle.) is one of the lead modified prototypes.
as §1

APL A20: EGS SEQ ID NO. 11 targeted to the fusion junction of PML-RARα (guide GGGUCUCAGGCCCGGGUUCGAUUCCCGGUGGCUGC; chemistry not given here)
cleavage of the APL RNA at the fusion junction [1]: induced cleavage
effect on cell growth as measured by MTT assay (NB4/D5 cells): inhibitory to cell growth
concentration above which dose dependent inhibition of NB4 cell growth was observed (NB4/D5 cells): above 3 μM

APL 1009: EGS SEQ ID NO. 12 targeted to the fusion junction of PML-RARα (guide GUCUCAAGAAGGUUCGAAUCCUUCGGCUGCC; chemistry not given here)
cleavage of the APL RNA at the fusion junction [1]: induced cleavage
effect on cell growth as measured by MTT assay (NB4/D5 cells): inhibitory to cell growth
concentration above which dose dependent inhibition of NB4 cell growth was observed (NB4/D5 cells): above 3 μM

EGS 2A: SEQ ID NO. 27, anti-HBV EGS expressed from hU6 pol III vector (guide GTGCTCGCTTCGGCAGCACTATACGCAGCGATCCGGGTTCCCGGCCAGGACACTATTTTT)
inhibition of HBV RNA expression (ranking) (HBV RNA): maximal inhibition

CC1=C(/C=C/C(C)=C/C=C/C(C)=C/C(=O)O)C(C)(C)CCC1 [TRETINOIN, all-trans retinoic acid]
patients in whom remission was induced ([2]; several published studies): about 48%
duration of the remission, average [2]: 3.5 months

EGS-407: lead prototype, U54 replaced with thymidine, SEQ ID NO. 46 (AGAUGAUAGAAGGTUAGAAUCCUUCACGCCGC; guide RNA; Thymidine at tRNA position 54, rest of chemistry not given here)
RNase P-mediated cleavage activity compared to the all-RNA control (Substrate RNA (SUB-156)): promising
degradation in 50% human serum [3]: no degradation products were detected
A50 (amount of RNase P required to achieve 50% cleavage) ([4]; 60 min, EGS in 10-fold excess relative to the RNA target): 0.053 unit
kcat ([4]; single turnover, first 5 min): indistinguishable from that of the all-RNA control
turnover over a course of 60 min (target RNA SUB-156): about 3 times
